Assay results: patent US12545639B2, “3-substituted phenylamidine compounds, preparation and use thereof” (PI INDUSTRIES LTD., priority 2019, dated 2026)

Columns and labels:
[1] = system: Pyricularia oryzae; experiment: microbe, parasite or virus in culture; format: cell-based; conditions: 168 h, read-out: control compared to the untreated check (radial growth)
[2] = system: Botrytis cinerea; experiment: Botrytis cinerea (gray mold) in vitro test, radial growth on potato dextrose agar; format: cell-based; conditions: 168 h, 300 ppm in potato dextrose agar, 22° C., 90% relative humidity, seven days, read-out: control compared to the untreated check (radial growth)
[3] = system: Septoria lycopersici/Corynespora cassicola (CORYCA); experiment: Septoria lycopersici/Corynespora cassicola (CORYCA) (leaf spot of tomato) in vitro test, radial growth on potato dextrose agar; format: cell-based; conditions: 168 h, 300 ppm in potato dextrose agar, 25° C., 70% relative humidity, seven days, read-out: control compared to the untreated check (radial growth)
[4] = system: Phakopsora pachyrhizi; experiment: Phakopsora pachyrhizi test in soybean, preventive, in vivo on plants; conditions: in Glycine max, read-out: Efficacy (% control), disease severity compared to the untreated check
[5] = system: Rhizoctonia solani; experiment: Rhizoctonia solani (rice sheath blight/potato black scurf) in vitro test, radial growth on potato dextrose agar; format: cell-based; conditions: 168 h, 300 ppm in potato dextrose agar, 25° C., 60% relative humidity, seven days, read-out: control compared to the untreated check (radial growth)
[6] = system: Alternaria solani; experiment: Alternaria solani (early blight of tomato/potato) in vitro test, radial growth on potato dextrose agar; format: cell-based; conditions: 168 h, 300 ppm in potato dextrose agar, 25° C., 60% relative humidity, seven days, read-out: control compared to the untreated check (radial growth)
[7] = system: Colletotrichum capsici; experiment: Colletotrichum capsici (anthracnose) in vitro test, radial growth on potato dextrose agar; format: cell-based; conditions: Colletotrichum truncatum, 168 h; 300 ppm in potato dextrose agar; 25° C., 60% relative humidity, seven days; read-out: control compared to the untreated check (radial growth)

CCN(C)C=Nc1cc(C)cc(Nc2c(C)cccc2F)c1Cl [Compound 133, N′-(2-chloro-3-((2-fluoro-6-methylphenyl)amino)-5-methylphenyl)-N-ethyl-N-methylformimidamide]
≥ 70%: inhibition of growth at 300 ppm [1] | inhibition of growth at 300 ppm [2] | inhibition of growth at 300 ppm [3] | pest or weed control at 500 ppm [4] | inhibition of growth at 300 ppm [5] | inhibition of growth at 300 ppm [6] | inhibition of growth at 300 ppm [7]

CCN(C)C=Nc1cc(Cl)cc(Cc2ccccc2F)c1C [Compound 103, N′-(5-chloro-3-(2-fluorobenzyl)-2-methylphenyl)-N-ethyl-N-methylformimidamide]
≥ 70%: inhibition of growth at 300 ppm [1] | inhibition of growth at 300 ppm [2] | inhibition of growth at 300 ppm [3] | pest or weed control at 500 ppm [4] | inhibition of growth at 300 ppm [5] | inhibition of growth at 300 ppm [6] | inhibition of growth at 300 ppm [7]

CCN(C)C=Nc1cc(C)cc(Cc2ccc(Br)cc2F)c1Cl [Compound 217, N′-(3-(4-bromo-2-fluorobenzyl)-2-chloro-5-methylphenyl)-N-ethyl-N-methylformimidamide]
≥ 70%: inhibition of growth at 300 ppm [1] | inhibition of growth at 300 ppm [2] | inhibition of growth at 300 ppm [3] | pest or weed control at 500 ppm [4] | inhibition of growth at 300 ppm [5] | inhibition of growth at 300 ppm [6] | inhibition of growth at 300 ppm [7]

CCN(C)C=Nc1cc(F)cc(Cc2cccc(C(F)(F)F)c2)c1C [Compound 201, N-ethyl-N′-(5-fluoro-2-methyl-3-(3-(trifluoromethyl)benzyl)phenyl)-N-methylformimidamide]
≥ 70%: inhibition of growth at 300 ppm [1] | inhibition of growth at 300 ppm [2] | inhibition of growth at 300 ppm [3] | pest or weed control at 500 ppm [4] | inhibition of growth at 300 ppm [5] | inhibition of growth at 300 ppm [6] | inhibition of growth at 300 ppm [7]

CCN(C)C=Nc1cc(F)cc(Nc2cc(Cl)cc(C(F)(F)F)c2)c1C [Compound 161, N′-(3-((3-chloro-5-(trifluoromethyl)phenyl)amino)-5-fluoro-2-methylphenyl)-N-ethyl-N-methylformimidamide]
≥ 70%: inhibition of growth at 300 ppm [1] | inhibition of growth at 300 ppm [2] | inhibition of growth at 300 ppm [3] | pest or weed control at 500 ppm [4] | inhibition of growth at 300 ppm [5] | inhibition of growth at 300 ppm [6] | inhibition of growth at 300 ppm [7]

CCN(C)C=Nc1cc(F)cc(Cc2ccccc2C(F)(F)F)c1C [Compound 143, N-ethyl-N′-(5-fluoro-2-methyl-3-(2-(trifluoromethyl)benzyl)phenyl)-N-methylformimidamide]
≥ 70%: inhibition of growth at 300 ppm [1] | inhibition of growth at 300 ppm [2] | inhibition of growth at 300 ppm [3] | pest or weed control at 500 ppm [4] | inhibition of growth at 300 ppm [5] | inhibition of growth at 300 ppm [6] | inhibition of growth at 300 ppm [7]

CCN(C)C=Nc1cc(C)cc(Cc2ccccc2F)c1Cl [Compound 14, N′-(2-chloro-3-(2-fluorobenzyl)-5-methylphenyl)-N-ethyl-N-methylformimidamide]
≥ 70%: inhibition of growth at 300 ppm [1] | inhibition of growth at 300 ppm [2] | inhibition of growth at 300 ppm [3] | pest or weed control at 500 ppm [4] | inhibition of growth at 300 ppm [5] | inhibition of growth at 300 ppm [6] | inhibition of growth at 300 ppm [7]

CCN(C)C=Nc1cc(C)cc(Nc2ccc(F)cc2)c1Cl [Compound 60, N′-(2-chloro-3-((4-fluorophenyl)amino)-5-methylphenyl)-N-ethyl-N-methylformimidamide]
≥ 70%: inhibition of growth at 300 ppm [1] | inhibition of growth at 300 ppm [2] | inhibition of growth at 300 ppm [3] | pest or weed control at 500 ppm [4] | inhibition of growth at 300 ppm [5] | inhibition of growth at 300 ppm [6] | inhibition of growth at 300 ppm [7]
